Source: patent US12728111B2, “Electrophilic compounds and electrophilic prodrugs for treating aneurysm” (University of Pittsburgh—Of the Commonwealth System of …, priority 2020, dated 2026)

What was measured:
[1] = test system: oxLDL-induced Il1b and Mmp9 expression in BMDMs; test: Real-time PCR of oxLDL-induced pro-inflammatory genes in BMDMs; format: cell-based, mouse; details: PPARγ antagonist or siRNA given with NO2—OA
Method: FIG. 3. NO2—OA prevents oxLDL-induced NFκB activation and pro-inflammatory cytokine production. Primary BMDMs were pretreated with vehicle, OA (2.5 μM) or NO2—OA (2.5 μM) for 1 h, followed by treatment of oxLDL (50 to 100 μg/ml) for the indicated times. (A, B) Nuclear (A) and cytoplasmic protein (B) fractions were isolated 1 h after oxLDL treatment and subjected to western blot with antibodies against p65, lamin a/c (nuclear marker) and GAPDH (cytosolic marker). Representative western blot images of three independent experiments are shown. (C) Quantification of the p65 nuclear to cytoplasmic ratio by image studio (normalized by the internal control, n=3). (D-F) Following 8 h of oxLDL treatment, levels of IL6, MCP1 and TNFα in the cell medium were measured by ELISA (n=4). (G) Real-time PCR quantification of gene expression levels of IL1b and Mmp9 in total mRNA extracted from the BMDMs. (C) Ordinary one-way ANOVA followed by Tukey's test was performed. As of (D-F), the basal level contains several non-detectable values, so ordinary one-way ANOVA followed by correction of FDR were performed for the oxLDL-treated groups only. Ordinary one-way ANOVA followed by Tukey's test was performed for (G). Data presented as mean±SEM. A p<0.05 for both the main test and post hoc test was considered statistically significant.
Mice suprarenal aortas were collected after the measurement of their diameter. Human aortic aneurysm samples were obtained from the Department of Cardiac Surgery at the University of Michigan. Samples from humans and mice were snap-frozen in liquid nitrogen for later processing. RNA from tissue was extracted using TRIzol (#15596018, Invitrogen). RNA from cells was isolated with the RNeasy Mini Kit (#74106, QIAGEN). SuperScript™ III First-Strand Synthesis System (#18080051, Invitrogen) was used to reverse-transcribe mRNA into cDNA. Gene expression was quantified in triplicates by quantitative real-time PCR (qPCR) using IQ SYBR Green Supermix (#1708882, Bio-Rad) with the indicated gene primers.

[2] = test system: AngII/PCSK9-induced AAA mouse model; test: Ang II plus hypercholesterolemia (AngII/PCSK9) induced AAA mouse model; format: in vivo
Method: FIG. 1. Characterization of the protective effect of NO2—OA (10-nitro-octadec-9-enoic acid) in the Ang II plus hypercholesterolemia-induced AAA mouse model. (A) Schematic illustration of the in vivo experimental design. Ten week old male C57BL/6 mice were IP injected with AAV carrying PCSK9 gain-of-function (D377Y) mutation and fed a western diet. After two weeks, each mouse was implanted with a pump delivering AngII at a rate of 1,500 ng/kg/min plus an additional pump containing either PEG-400 (vehicle), OA or NO2—OA with a delivery rate of 5 mg/kg/day (n=25 to 30 per group) and carried to the endpoint for another four weeks. Mice with ruptured aorta within the first week or with total plasma cholesterol less than 250 mg/dl were excluded from the study. (B) Representative morphological differences of the abdominal aorta. (C) AAA incidence calculated by using 1.2 mm as the cutoff diameter indicated by the dotted line in (D). (D) Average maximal diameter of the suprarenal aorta region. (E) Representative H&E and VVG staining of the paraffin-embedded suprarenal aortic cross-sections (5 μm). (F) Grade of elastic fiber degradation in the aorta (1 to 4). A 2×3 Fisher's exact test followed by posthoc test was performed for (C). For (D) and (F), the Kruskal-Wallis test followed by Dunn's multiple comparisons was performed. Continuous data are presented as mean±SEM. Scale bar=20 μm for (E). A p<0.05 for both the main test and post hoc test was considered statistically significant.
Ten weeks old male C57BL/6J mice were purchased from The Jackson Laboratory. The murine AAA model induced by AngII/PCSK9 gain-of-function mutation is well-established. After acclimation for 1 week, mice were fed a western diet (TD.88137, Envigo) and intraperitoneally injected with 2×1011 genomic copies of AAV-PCSK9.D377Y (AAV serotype 8, Penn Vector Core). Two weeks later, each mouse was subcutaneously implanted with two osmotic pumps (Model #2004, Alzet). One was loaded with AngII (#H-1706, Bachem), releasing at a rate of 1,500ng/kg/min, while the other one was loaded with PEG-400, OA or NO2—OA at a delivery rate of 5 mg/kg/day for OA or NO2—OA. After 4-weeks infusion, mice were euthanized and the maximal outer diameter of the suprarenal aorta was assessed with a digital caliper by a third person blinded to the treatment. Suprarenal aortas with a maximal diameter ≥50% larger than standard size (≥1.2 mm) were considered as abdominal aortic aneurysms. Mice dead within the first week of pump implantation or with a serum total cholesterol level less than 250 mg/dL were excluded from the study. All animal procedures were performed following the protocols approved by the Institutional Animal Care & Use Committee (IACUC) at the University of Michigan.
H&E and Verhoeff Van Gieson staining of paraffin or frozen sections of mouse suprarenal abdominal aorta were performed by the In-Vivo Animal Core at the University of Michigan. Elastin degradation grade was calculated as we previously reported.

SMILES	protective effect of NO2—OA on oxLDL-induced Il1b and Mmp9 expression [1]	AAA incidence ([2]; 5 mg/kg/day subcutaneous infusion, after 4 weeks, cutoff diameter 1.2 mm) [%]	maximal diameter of the suprarenal aorta region ([2]; 5 mg/kg/day subcutaneous infusion, after 4 weeks, mean±SEM) [mm]	ECM degradation / elastin fiber degradation ([2]; 5 mg/kg/day, 4 weeks, VVG staining, grade 1 to 4)
O=C(Nc1ccccc1)c1cc([N+](=O)[O-])ccc1Cl [GW9662, reference compound]	partially blocked			
CCCCCCCCC=CCCCCCCCC(=O)O [OA, octadec-9-enoic acid, reference compound]		69.6	1.78±0.18	prominent
